# In US11730712B2, “Functionalized long-chain hydrocarbon mono- and di-carboxylic acids and derivatives thereof, and their use for the prevention or treatment of disease” (ESPERVITA THERAPEUTICS, INC., priority 2021, dated 2023):
# Legend:
# [1] = test system: Il-6 mRNA; test: Il-6 mRNA by RT-qPCR; assay type: cell-based
# [2] = test system: bone marrow derived macrophages (BMDMs); test: LPS-induced glycolysis and inflammation in bone marrow derived macrophages; assay type: cell-based, mouse; conditions: 50 μM compound, 4 hours
# Procedure: Macrophage were isolated as follows: femurs and tibia were collected from mice, cleaned of any soft tissues and the ends were cut off from each bone. The tibia and femur were then transferred into 1.5 mL Eppendorf tubes and the marrow was extracted via centrifugation (1900 g×5 min), resuspended in DMEM and strained through a 40 μm strainer into a 50 ml falcon tube. The strainer was rinsed with an additional 40 mL of DMEM, the cell suspension was transferred to a T175 flask, an additional 60 mL of DMEM was added and the cells were cultured at 37° C. for 4 hours. Differentiation was initiated by adding 20 mL of L929 fibroblast conditioned media and 12 mL was plated on 100 mm dishes. The cells were then left for 7 days to differentiate into macrophages. The media was then aspirated, cells were scraped in 3 mL of DMEM, then pooled and diluted at a ratio of 1:2 with DMEM. The cell suspension was plated in 12-well plates and cells were allowed to adhere overnight. […] Changes in gene expression were calculated using 2-delta cT method. Macrophage glycolytic rates were assessed using a Seahorse Bioanalyzer (XFe96, Agilent Scientific Instruments). […] The following day cells were serum-starved for 2 hours then treated with LPS (100 ng/mL) and Compound I-1 (50 μM) and glycolytic rate was analyzed (Agilent Seahorse XFp Cell Energy Phenotype Test Kit, Cat #103275-100).
smiles,measurement,setting,value
"CC(C)(CCCCc1ccc(CCCCC(C)(C)C(=O)O)cc1)C(=O)O [Compound I-1, 6-[4-(5-carboxy-5-methylhexyl)-phenyl]-2,2-dimethylhexanoic acid]","marker of inflammation, Il-6 mRNA",[1],suppression
same,"LPS-induced glycolysis (Seahorse) and inflammation (Il-6, Il-1b mRNA)",[2],suppression of LPS-induced glycolysis and inflammation
